One data set concerns proteasomes. The note with it: Rock, et al., 1994; cited from earlier work.
A further data set concerns Hsp70. Kind of data set: Hsp70 induction in Chinese hamster ovary (CHO) cells. The class given is cell-based. The note with it: data not shown.
The subject of data set [1] is cysteine proteases, calpain and cathepsin B. The conditions noted are these: Rock, et al., 1994; cited from earlier work.
The next data set relates to HSF1. As to the kind of experiment: HSF1 steady-state level and trimerization (Western blot, EGS cross-linking) in HepG2 cells. In kind it is cell-based, human. The note with it: ALLN 40 μg/ml, 2 hours. How it is done: HepG2 cells were treated with serum-free MEM containing 1.5% BSA for 2 hours at 37° C. without any additions (lane 1), at 37° C. but containing 40 μg/ml of ALLN in the medium (lane 2), at 37° C. in a medium containing both ALLN and 50 μg/ml of cycloheximide (lane 3), at 42° C. alone (lane 4), or at 42° C. plus cycloheximide in the medium (lane 5). Cell lysates were prepared as described under Experimental Details. The lysates were either directly run on the SDS-PAGE (A) to show the steady-state protein levels of HSF1 or subjected to cross-linking with ethylene glycol bis sucrinimidylsuccinate (EGS) before running the gel (B) to show the oligomeric forms of HSF1. The proteins were then transfered to a nitrocellulose membrane and immunoblotted with anti-human HSF1 antibody. Arrows on the right side indicates the monomeric, dimeric or trimeric forms of HSF1, respectively. This experiment was repeated three times with identical results.
Total RNA was prepared using the procedure of Chomczynski and Sacchi (Chomczynski, et al., 1987) and a commercially prepared reagent, TRISOLV™ (Biotecx Laboratories Inc., TX). Equal amounts of tRNA samples (10 μg) were size-fractionated on a 1% agarose-formaldehyde gel according to the methods described (Maniatis, et al., 1982) and transferred to a piece of QIAGEN plus nylon membrane. To determine loading and transfer efficiency, RNA was stained with ethidium bromide before and after transfer. The membrane was baked for 30 min. at 80° C. in vacuo (a vacuum) followed by UV cross-linking. It was then incubated for 4 hours at 65° C. in a prehybridization mixture containing 10% dextran sulfate, 1% SDS, 1M sodium chloride, 50 mM Tris-HCl (pH 7.5) and 100 μg/ml denatured salmon sperm DNA. Hybridization was carried out for 18 hours at 65° C. in the same buffer with a ^32P-labeled (1×10^6 cpm/ml) 40-mer oligonucleotide probe to the untranslated 5′ region of a human hsp70 gene (Oncogene Science). […] The membrane was then washed four times with 2×SSC, 0.1% SDS at room temperature, one time at 65° C. for 30 min., and one time at room temperature again for 5 min., and finally rinsed with 2×SSC at room temperature. This membrane was air dried and exposed to X-ray film at −80° C. for 48 hours. For measurement of the steady-state HSF1 protein levels, whole cell extracts were prepared by lysing the cells directly with 2×SDS-sample buffer (Maniatis, et al., 1982). For chemical cross-linking experiments, whole-cell extracts were prepared as described (Mosser, et al., 1988). Briefly, the cold PBS-washed cell pellets were quickly and repeatedly frozen in liquid nitrogen. […]

In another data set the test system is hsp70, i.e. hsp72, mRNA. Kind of data set: Northern blot of hsp70 (hsp72) mRNA in HepG2 cells. In kind it is cell-based, human. The note with it: ALLN 40 μg/ml, 4 hours at 37° C. How it is done: After 4 hours treatment at 37° C., cells were harvested. (B). […] The total RNA was prepared, and equal amounts of the samples were loaded and run on a 1% formaldehyde-agarose gel, blotted onto a nylon membrane, and subsequently hybridized with specific synthetic oligonucleotide probes for hsp70 mRNA as described under Experimental Details. The position of 28S and 18S rRNA are shown for reference.
Equal amounts of tRNA samples (10 μg) were size-fractionated on a 1% agarose-formaldehyde gel according to the methods described (Maniatis, et al., 1982) and transferred to a piece of QIAGEN plus nylon membrane. To determine loading and transfer efficiency, RNA was stained with ethidium bromide before and after transfer. The membrane was baked for 30 min. at 80° C. in vacuo (a vacuum) followed by UV cross-linking. It was then incubated for 4 hours at 65° C. in a prehybridization mixture containing 10% dextran sulfate, 1% SDS, 1M sodium chloride, 50 mM Tris-HCl (pH 7.5) and 100 μg/ml denatured salmon sperm DNA. […] The membrane was then washed four times with 2×SSC, 0.1% SDS at room temperature, one time at 65° C. for 30 min., and one time at room temperature again for 5 min., and finally rinsed with 2×SSC at room temperature.

For data set [2], the system named is human microvascular endothelial cell line. As to the kind of experiment: TCA-cpm measurement in human microvascular endothelial cell line. In kind it is cell-based. The conditions noted are these: 4 hours ALLN 40 μg/ml.

Square brackets hold non-standard residues; d marks the D form. Peptide text beside a SMILES is read from it. Nle = CCCC[C@H](N)C(=O)O

Take `CCCC[C@@H](C=O)NC(=O)[C@H](CC(C)C)NC(=O)[C@H](CC(C)C)NC(C)=O` [ALLN, N-acetyl-leucyl-leucyl-norleucinal] (Ac-Leu-Leu-[Nle]-aldehyde): the inhibition of proteasomes result with proteasomes is listed as “potent inhibitors”. Further, the “cellular Hsp70 levels” value in the data set with Hsp70 is “increasing cellular Hsp70 levels”. Further, in data set [1], the “activities against calpain and cathepsin B” value is given as “significant activities”. In addition, in the data set on HSF1 (270-kDa cross-linked product), the “oligomeric form of HSF1 after EGS cross-linking” value is given as “exists as a trimer”. Moreover, the “steady-state levels of HSF1 in whole cell extracts” value with HSF1 (with or without cycloheximide) is “not significantly affected”. The “amount of hsp70, i.e. hsp72, mRNA” value in the data set with hsp70, i.e. hsp72, mRNA was “increased dramatically”. In data set [2], the TCA-cpm measurement entry is listed as “no change”.

These data come from patent US20020111314A1, “Novel stimulation of gene expression and protein synthesis of heat shock protein 72/73 (Hsp 70)” (The Trustees of Columbia University, priority 1995, published 2002).
